Assay results from US7989466B2, “Methods to inhibit or augment an inflammatory response” (Cambridge Enterprise Limited, priority 1999, dated 2011).
Read-outs that look alike come from different tables or passages of the source. Marks after values point to notes of the source that are not given here. Positions of bridges follow the written chain, without caps; N, C: chain ends. Non-standard residues stand in square brackets, D forms with d. Residues, ends and D or L forms follow the SMILES beside them. No end group written: not given here.

Legend:
[1] = molecular target: T1, Duffy Antigen Receptor for Chemokines (DARC) (Homo sapiens, UniProt Q16570); assay: DARC binding: competition with 125I-MCP-1 on red blood cells; conditions: for DUFFY SELECTIVITY, peptide 2 family: ka for binding to red blood cells divided by the ka for binding THP-1 cells
T1 sequence (Q16570 1-336): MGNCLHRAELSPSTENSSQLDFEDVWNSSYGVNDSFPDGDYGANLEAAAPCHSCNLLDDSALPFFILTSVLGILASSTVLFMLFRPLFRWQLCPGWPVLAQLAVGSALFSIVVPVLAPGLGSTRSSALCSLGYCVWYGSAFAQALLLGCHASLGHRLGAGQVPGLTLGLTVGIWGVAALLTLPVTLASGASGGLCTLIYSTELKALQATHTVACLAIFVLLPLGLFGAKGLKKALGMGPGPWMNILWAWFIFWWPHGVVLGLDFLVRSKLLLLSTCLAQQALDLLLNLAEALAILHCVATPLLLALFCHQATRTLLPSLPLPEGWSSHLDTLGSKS

[2] = system: MCP-1 induced THP-1 migration; assay: THP-1 trans-well migration assay, MCP-1 as chemoattractant; format: cell-based, human; conditions: for % inhibition at 100 μM versus MCP-1, THP-1 migration: agent with the cells, n.s. = no statistically significant inhibition
In short: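 5×10^4 THP-1 cells with serially diluted peptide in upper chamber, 5 µm filter, recombinant human chemokine 50 ng/ml (5.9 nM) in lower chamber. Incubated 4 h at 37 °C. Migrated cells counted by MTT staining, A595 read against a THP-1 standard curve.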

[3] = system: TGFβ1 induced THP-1 migration; assay: THP-1 trans-well migration assay, TGFβ1 as non-chemokine control; format: cell-based, human; conditions: for ED50 versus TGFβ1, inhibition of THP-1 migration: n.s. = no statistically significant inhibition (p > 0.05); for % inhibition at 100 μM versus TGFβ1, THP-1 migration: n.s. = no statistically significant inhibition
Procedure: Any method suitable for counting cells can be used, for example, counting with a hemocytometer, incubation of the cells with MTT (see above), or FACS analysis. A negative control assay is also performed, using TGF-β or another non-chemokine chemoattractant (e.g., IL1β or TNFα). To assess whether the agent is cytotoxic, the same concentrations of agent are incubated with THP-1 cells. Agents which 1) are not cytotoxic at levels which inhibit migration, 2) are ineffective at inhibiting the negative control-induced migration, and 3) reduce or inhibit chemokine-induced THP-1 migration, are agents which fall within the scope of the invention.
Chemotaxis was induced in a 96-well disposable chemotaxis chamber fitted with a […] polycarbonate filter (PVP free, ChemoTX, Neuroprobe Inc., Cabin John). […] The framed filter was aligned with the holes in the corner of the filter frame and placed over the wells. […] Peptides were dissolved in Milli Q water and then serially diluted in culture medium. In most cases, the serially diluted peptides were added to the upper compartment of the chemotaxis chamber. The chamber was incubated at 37° C. in a humidified atmosphere of 5% CO2 for 4 hours.
After incubation, the cells were gently removed from the top of the filter with a pipette, 20 μl of 20 mM EDTA in PBS was added into each top well, and the mixture was incubated for 20 minutes at 4° C. The filter was then carefully flushed with media using a gentle flow, and removed. […] The curve was based on a two-fold dilution series of THP-1 cells (top standard 100,000 cells in 29 μl). […] The media was carefully aspirated from each well, and the converted dye was solubilized by 20 μl of DMSO.

Molecule `CC[C@@H](C)[C@H]1NC(=O)[C@@H](CCC(N)=O)NC(=O)[C@H](N)CSSC[C@H](C(N)=O)NC(=O)[C@@H](CC(C)C)NC(=O)[C@@H](CC(=O)O)NC(=O)[C@H]2CCCN2C(=O)[C@@H](CCCCN)NC(=O)[C@@H](CCC(N)=O)NC(=O)[C@@H](CCCCN)NC(=O)[C@@H](Cc2c[nH]c3ccccc23)NC1=O` (H-[dC][dQ][dI][dW][dK][dQ][dK][dP][dD][dL][dC]-NH2; disulfide 1-11; N-terminus assumed) has a Kd [1] of 90 µM and an IC50 ([2]; read-out: MCP-1 inhibitory activity in the THP-1 transwell assay) of 0.005 to 0.1 µM.

Work on `C=CCCCCCCCCC(=O)N[C@H]1CCC(=O)NC1=O` [A-I (NR58.4), [3S]-3-(undec-10-enoylamino)piperidine-2,6-dione] yielded an EC50 ([2]; listed as NR58.4 (A-I), read-out: ED50 versus MCP-1 induced chemotaxis of THP-1) of 0.002 µM.

For `NCCCC[C@H](NC(=O)[C@H](CCC(N)=O)NC(=O)[C@@H](N)CCCCN)C(=O)O` [KQK], the “percentage inhibition of migration induced by MCP-1” value ([2]; tripeptide at 100 μM, mean ± range of two experiments, dash = no statistically significant reduction in migration) was 95 ± 8^b % and the “ED50 versus TGFβ1, inhibition of THP-1 migration” value (shortened to “ED50 versus TGFβ1, inhibition”) [3] was “n.s”.

EICADPKQKWVQ [peptide 3(1-12)[MCP-1]] was tested, and the “DUFFY SELECTIVITY (DARC specificity ratio)” value ([1]; estimated ka for binding to red blood cells divided by average inhibitory ED50 versus each of the chemokines) was 1.0, the “% inhibition at 100 μM versus MCP-1, THP-1 migration” value ([2]; 100 μM) was > 99% and the “% inhibition at 100 μM versus MCP-1, THP-1 migration” value ([2]; 100 μM, listed as Peptide 3 (SEQ ID NO: 1)) was 112%. The “% inhibition of MCP-1 induced migration at 100 μM, peptide with the chemokine in the lower compartment” value ([2]; 100 μM, lower compartment) was 17%, the EC50 ([2]; agent with the cells in the upper compartment, n.s. = no statistically significant inhibition (p > 0.05), read-out: ED50 versus MCP-1, inhibition of THP-1 migration) was 8 ± 1 µM and the “% inhibition at 100 μM versus TGFβ1, THP-1 migration” value [3] was “n.s”. For the same molecule, the “ED50 versus TGFβ1, inhibition” value [3] was “n.s”.

“SYRRITSSKCPKEAV [peptide 2(1-15)[MCP-1]]” was tested, and the Kd ([1]; association (affinity) constant for DARC, red blood cells) was 100 µM, the Kd ([1]; association constant / affinity for DARC, red blood cells) was < 0.5 µM and the “DUFFY SELECTIVITY, peptide 2 family” value [1] was 0.1-0.2. For the same molecule, the “DUFFY SELECTIVITY, peptide 2 family” value ([1]; listed as Pep2[MCP1]) was 0.18^d, the “% inhibition at 100 μM versus MCP-1, THP-1 migration” value ([2]; 100 μM, listed as Peptide 2 (SEQ ID NO: 3)) was “n.s” and the “% inhibition at 100 μM versus MCP-1, THP-1 migration” value ([2]; 100 μM, listed as Peptide 2[MCP-1]) was 19%. The “ED50 versus MCP-1, inhibition of THP-1 migration” value ([2]; agent with the cells in the upper compartment, n.s. = no statistically significant inhibition (p > 0.05)) was “n.s”, the “MCP-1 ED-50” value ([2]; ns = not significantly different from control) was “ns” and the “% inhibition at 100 μM versus TGFβ1, THP-1 migration” value [3] was “n.s”. The “ED50 versus TGFβ1, inhibition” value [3] was “n.s”.
